Test results from ChEMBL document CHEMBL1146925 (Bioorg Med Chem Lett, 2006).

What was measured:
D(3) dopamine receptor = D(3) dopamine receptor (Homo sapiens, UniProt P35462); test: Binding affinity to cloned human dopamine D3 receptor
D(2) dopamine receptor = D(2) dopamine receptor (Homo sapiens, UniProt P14416); test: Binding affinity to cloned human dopamine D2 receptor
[1] = Oral bioavailability in rat at 2 mg/kg, iv and 10 mg/kg, po; type: ADME, organism-based; conditions: in vivo
Canis familiaris = organism: Canis familiaris; test: Metabolic stability in dog liver microsomes; type: ADME, Canis lupus familiaris
[2] = Brain to plasma ratio in rat at 2 mg/kg, iv and 10 mg/kg, po
Liver microsomes [3] = test: Metabolic stability in human liver microsomes; type: ADME, Microsome
Liver microsomes [4] = test: Metabolic stability in rat liver microsomes; type: ADME, Microsome
[5] = Permeability across Caco-2 cell membrane at pH 7.2; type: ADME, cell-based; conditions: human, Caco-2, pH 7.2; read-out: permeability

Chain of D(2) dopamine receptor (P14416 whole entry): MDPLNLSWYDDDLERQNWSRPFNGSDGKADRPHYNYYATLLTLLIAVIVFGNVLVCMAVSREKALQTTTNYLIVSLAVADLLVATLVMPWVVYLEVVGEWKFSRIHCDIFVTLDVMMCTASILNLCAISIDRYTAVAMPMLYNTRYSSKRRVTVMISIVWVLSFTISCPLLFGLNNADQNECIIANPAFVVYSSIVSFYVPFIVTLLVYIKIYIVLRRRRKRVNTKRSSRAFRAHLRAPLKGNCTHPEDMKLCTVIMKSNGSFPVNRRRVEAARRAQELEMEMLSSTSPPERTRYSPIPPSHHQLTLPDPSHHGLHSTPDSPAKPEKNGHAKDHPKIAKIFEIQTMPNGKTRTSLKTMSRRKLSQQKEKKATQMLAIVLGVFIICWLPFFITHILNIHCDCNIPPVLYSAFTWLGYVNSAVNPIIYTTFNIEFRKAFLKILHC
Chain of D(3) dopamine receptor (P35462 whole entry): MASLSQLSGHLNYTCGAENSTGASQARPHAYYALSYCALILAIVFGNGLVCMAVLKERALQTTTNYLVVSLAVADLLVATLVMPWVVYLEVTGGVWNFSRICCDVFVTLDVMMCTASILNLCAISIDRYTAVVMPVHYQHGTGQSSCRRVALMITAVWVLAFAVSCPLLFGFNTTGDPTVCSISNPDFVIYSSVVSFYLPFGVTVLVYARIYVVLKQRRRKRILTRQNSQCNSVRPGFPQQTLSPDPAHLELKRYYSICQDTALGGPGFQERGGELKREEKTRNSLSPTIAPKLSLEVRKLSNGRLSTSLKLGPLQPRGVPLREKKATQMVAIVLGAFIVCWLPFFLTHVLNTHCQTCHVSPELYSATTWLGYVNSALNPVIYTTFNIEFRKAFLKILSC

Ki (D(3) dopamine receptor) [nM] | Ki (D(2) dopamine receptor) [nM] | Compound | also measured
1.1 | 25.5 | CC(C)(C)c1nc(N2CCN(CCCCn3ccc(O)cc3=O)CC2)cc(C(F)(F)F)n1 | –
0.9 | 17.3 | CCN(CC)C(=O)NCCCCN1CCN(c2cc(C(F)(F)F)nc(C(C)(C)C)n2)CC1 | –
– | 171 | Cc1cccn(CCCCN2CCN(c3cc(C(F)(F)F)nc(C(C)(C)C)n3)CC2)c1=O | –
12.1 | 195 | Cc1cccc(=O)n1CCCCN1CCN(c2cc(C(F)(F)F)nc(C(C)(C)C)n2)CC1 | –
32.2 | 128 | CC(C)(C)c1nc(N2CCN(CCCCn3cc(Cl)ccc3=O)CC2)cc(C(F)(F)F)n1 | –
4 | 65.8 | CC(C)(C)NC(=O)NCCCCN1CCN(c2cc(C(F)(F)F)nc(C(C)(C)C)n2)CC1 | –
35.7 | 399 | CC(C)(C)c1nc(N2CCN(CCCCn3cc(C(F)(F)F)ccc3=O)CC2)cc(C(F)(F)F)n1 | –
11.4 | 231 | CC(C)(C)c1nc(N2CCN(CCCCn3ccc(C(F)(F)F)cc3=O)CC2)cc(C(F)(F)F)n1 | –
– | 936 | CC(C)(C)c1nc(N2CCN(CCCCn3ccc(C(F)(F)F)nc3=O)CC2)cc(C(F)(F)F)n1 | –
9.3 | 409 | CC(C)(C)c1nc(N2CCN(CCCCn3cccc(C(F)(F)F)c3=O)CC2)cc(C(F)(F)F)n1 | –
– | 527 | CC(C)(C)c1nc(N2CCN(CCCCn3ccc(-c4ccccc4)cc3=O)CC2)cc(C(F)(F)F)n1 | –
8.3 | 212 | CCN(Cc1ccccc1)C(=O)NCCCCN1CCN(c2cc(C(F)(F)F)nc(C(C)(C)C)n2)CC1 | –
7.2 | 234 | CC(C)(C)c1nc(N2CCN(CCCCNC(=O)NCCc3ccccc3)CC2)cc(C(F)(F)F)n1 | –
– | 168 | COc1cccn(CCCCN2CCN(c3cc(C(F)(F)F)nc(C(C)(C)C)n3)CC2)c1=O | –
5.5 | 91.3 | CC(C)(C)CNC(=O)NCCCCN1CCN(c2cc(C(F)(F)F)nc(C(C)(C)C)n2)CC1 | –

Compound | Ki (D(3) dopamine receptor) [nM] | Ki (D(2) dopamine receptor) [nM] | also measured
CC(C)(C)c1nc(N2CCN(CCCCNC(=O)NCC3CCCCC3)CC2)cc(C(F)(F)F)n1 | 6.7 | 159 | –
CC(C)(C)c1nc(N2CCN(CCCCNC(=O)Nc3ccccc3)CC2)cc(C(F)(F)F)n1 | 3.2 | 59.1 | –
CC(C)(C)c1nc(N2CCN(CCCCNC(=O)CCc3ccccc3)CC2)cc(C(F)(F)F)n1 | 1.6 | 244 | bioavailability [1]: < 10%
Cc1ccn(CCCCN2CCN(c3cc(C(F)(F)F)nc(C(C)(C)C)n3)CC2)c(=O)c1 | – | 62.6 | bioavailability [1]: 37%; Stability (Canis familiaris): 59%; Kp [2]: 3.7; Stability (Liver microsomes [3]): > 97%; Stability (Liver microsomes [4]): 74%; Papp [5]: 5 ×10⁻⁶ cm/s
CC(C)(C)c1nc(N2CCN(CCCCNC(=O)NCc3ccccc3)CC2)cc(C(F)(F)F)n1 | 2.7 | 137 | –
CC(C)(C)c1nc(N2CCN(CCCCCC(=O)NCc3ccccc3)CC2)cc(C(F)(F)F)n1 | 6.2 | 174 | –
